Measured values: PMC4628873 (Bioorganic & medicinal chemistry letters, 2015)

Experiments:
5-HT2A receptor [1] = target: T1, 5-HT2A receptor (Homo sapiens, UniProt P28223); assay: FLIPR calcium mobilization functional assay, human 5-HT2A receptor; conditions: for Selectivity α1A/5-HT2A: ratio of Ke α1A / Ke 5-HT2A
α1A adrenergic receptor [2] = target: T2, α1A adrenergic receptor (Homo sapiens, UniProt P35348); assay: FLIPR calcium mobilization functional assay, α1A adrenergic receptor
T2 sequence (P35348 1-466): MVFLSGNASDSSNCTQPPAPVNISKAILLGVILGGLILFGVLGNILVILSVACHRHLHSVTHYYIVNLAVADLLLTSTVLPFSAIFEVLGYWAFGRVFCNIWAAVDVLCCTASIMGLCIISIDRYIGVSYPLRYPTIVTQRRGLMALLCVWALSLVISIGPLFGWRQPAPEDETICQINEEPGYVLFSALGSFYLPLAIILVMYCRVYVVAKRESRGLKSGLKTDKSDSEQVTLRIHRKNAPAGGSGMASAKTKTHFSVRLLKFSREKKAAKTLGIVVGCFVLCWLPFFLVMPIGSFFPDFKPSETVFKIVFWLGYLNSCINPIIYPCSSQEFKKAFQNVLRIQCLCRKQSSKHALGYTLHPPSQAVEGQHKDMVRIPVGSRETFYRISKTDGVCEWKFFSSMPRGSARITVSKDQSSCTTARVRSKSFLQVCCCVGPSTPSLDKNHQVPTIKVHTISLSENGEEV

β1 = β1 (Homo sapiens, UniProt P08588); assay: PDSP screening; conditions: no affinity
D4 = D4 (Homo sapiens, UniProt P21917); assay: PDSP screening; conditions: no affinity
M4 = M4 (Homo sapiens, UniProt P08173); assay: PDSP screening; conditions: no affinity
M2 = M2 (Homo sapiens, UniProt P08172); assay: PDSP screening; conditions: no affinity
α2A = α2A (Homo sapiens, UniProt P08913); assay: PDSP screening
NET = NET (Homo sapiens, UniProt P23975); assay: PDSP screening; conditions: no affinity
5-HT2C = 5-HT2C (Homo sapiens, UniProt P28335); assay: PDSP screening
5-HT5A = 5-HT5A (Homo sapiens, UniProt P47898); assay: PDSP screening; conditions: no affinity
KOR = KOR (Homo sapiens, UniProt P41145); assay: PDSP screening; conditions: no affinity
M3 = M3 (Homo sapiens, UniProt P20309); assay: PDSP screening; conditions: no affinity
H3 = H3 (Homo sapiens, UniProt Q9Y5N1); assay: PDSP screening; conditions: no affinity
α1B = α1B (Homo sapiens, UniProt P35368); assay: PDSP screening; conditions: no affinity
DOR = DOR (Homo sapiens, UniProt P41143); assay: PDSP screening; conditions: no affinity
BZP rat brain site = assay: PDSP screening; conditions: no affinity
DAT = DAT (Homo sapiens, UniProt Q01959); assay: PDSP screening
β2 = β2 (Homo sapiens, UniProt P07550); assay: PDSP screening; conditions: no affinity
H4 = H4 (Homo sapiens, UniProt Q9H3N8); assay: PDSP screening; conditions: no affinity
5-HT1A = 5-HT1A (Homo sapiens, UniProt P08908); assay: PDSP screening; conditions: no affinity
D2 = D2 (Homo sapiens, UniProt P14416); assay: PDSP screening; conditions: no affinity
5-HT2A receptor [3] = target: T1, 5-HT2A receptor; assay: PDSP screening
β3 = β3 (Homo sapiens, UniProt P13945); assay: PDSP screening; conditions: no affinity
SERT = SERT (Homo sapiens, UniProt P31645); assay: PDSP screening; conditions: no affinity
D5 = D5 (Homo sapiens, UniProt P21918); assay: PDSP screening; conditions: no affinity
sigma-2 = sigma-2 (Rattus norvegicus, UniProt Q5U3Y7); assay: PDSP screening
MOR = MOR (Homo sapiens, UniProt P35372); assay: PDSP screening; conditions: no affinity
M1 = M1 (Homo sapiens, UniProt P11229); assay: PDSP screening; conditions: no affinity
GABAA = assay: PDSP screening; conditions: no affinity
H1 = H1 (Homo sapiens, UniProt P35367); assay: PDSP screening; conditions: no affinity
5-HT6 = 5-HT6 (Homo sapiens, UniProt P50406); assay: PDSP screening
PBR = PBR (Rattus norvegicus, UniProt P16257); assay: PDSP screening
α1A = α1A (Homo sapiens, UniProt P35348); assay: PDSP screening; conditions: no affinity
α1D = α1D (Homo sapiens, UniProt P25100); assay: PDSP screening; conditions: no affinity
α1A adrenergic receptor [4] = target: T2, α1A adrenergic receptor; conditions: prior SAR studies; cited from earlier work

T1 sequence (P28223 whole entry): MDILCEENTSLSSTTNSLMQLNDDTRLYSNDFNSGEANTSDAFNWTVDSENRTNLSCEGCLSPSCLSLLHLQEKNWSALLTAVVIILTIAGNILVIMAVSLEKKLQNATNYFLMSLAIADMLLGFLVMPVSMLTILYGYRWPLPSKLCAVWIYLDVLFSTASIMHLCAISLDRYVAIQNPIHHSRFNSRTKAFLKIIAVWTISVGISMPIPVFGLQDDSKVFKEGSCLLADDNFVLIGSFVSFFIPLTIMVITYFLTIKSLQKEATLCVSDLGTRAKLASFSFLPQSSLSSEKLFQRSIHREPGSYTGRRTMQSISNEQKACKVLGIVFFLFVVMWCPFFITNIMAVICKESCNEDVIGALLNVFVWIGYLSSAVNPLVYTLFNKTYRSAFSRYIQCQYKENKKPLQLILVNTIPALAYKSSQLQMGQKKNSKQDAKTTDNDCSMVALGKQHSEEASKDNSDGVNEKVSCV
M1, sequence (P11229 whole entry): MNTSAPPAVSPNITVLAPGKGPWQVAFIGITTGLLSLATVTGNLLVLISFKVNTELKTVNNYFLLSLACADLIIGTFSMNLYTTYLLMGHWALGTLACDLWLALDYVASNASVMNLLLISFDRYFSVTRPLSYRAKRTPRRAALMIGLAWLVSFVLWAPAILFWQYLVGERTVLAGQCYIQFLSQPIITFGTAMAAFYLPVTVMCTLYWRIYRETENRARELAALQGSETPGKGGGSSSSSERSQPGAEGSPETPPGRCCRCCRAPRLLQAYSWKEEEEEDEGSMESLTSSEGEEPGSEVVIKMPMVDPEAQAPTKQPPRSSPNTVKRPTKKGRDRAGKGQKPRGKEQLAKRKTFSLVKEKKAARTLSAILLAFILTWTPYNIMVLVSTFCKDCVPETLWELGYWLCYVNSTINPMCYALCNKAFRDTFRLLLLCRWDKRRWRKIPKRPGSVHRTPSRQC
M4, sequence (P08173 whole entry): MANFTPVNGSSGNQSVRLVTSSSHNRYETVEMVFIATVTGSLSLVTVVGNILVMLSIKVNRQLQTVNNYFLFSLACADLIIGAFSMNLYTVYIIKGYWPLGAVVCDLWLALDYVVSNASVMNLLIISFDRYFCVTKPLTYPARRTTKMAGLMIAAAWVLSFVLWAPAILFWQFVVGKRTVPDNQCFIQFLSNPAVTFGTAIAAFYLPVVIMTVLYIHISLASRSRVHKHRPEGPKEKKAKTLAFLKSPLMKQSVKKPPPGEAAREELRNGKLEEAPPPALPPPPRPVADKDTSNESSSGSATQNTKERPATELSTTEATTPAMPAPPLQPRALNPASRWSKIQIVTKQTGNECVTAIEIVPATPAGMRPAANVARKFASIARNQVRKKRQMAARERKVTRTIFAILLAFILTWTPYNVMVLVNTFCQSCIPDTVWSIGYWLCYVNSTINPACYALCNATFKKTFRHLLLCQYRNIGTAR
5-HT1A, sequence (P08908 whole entry): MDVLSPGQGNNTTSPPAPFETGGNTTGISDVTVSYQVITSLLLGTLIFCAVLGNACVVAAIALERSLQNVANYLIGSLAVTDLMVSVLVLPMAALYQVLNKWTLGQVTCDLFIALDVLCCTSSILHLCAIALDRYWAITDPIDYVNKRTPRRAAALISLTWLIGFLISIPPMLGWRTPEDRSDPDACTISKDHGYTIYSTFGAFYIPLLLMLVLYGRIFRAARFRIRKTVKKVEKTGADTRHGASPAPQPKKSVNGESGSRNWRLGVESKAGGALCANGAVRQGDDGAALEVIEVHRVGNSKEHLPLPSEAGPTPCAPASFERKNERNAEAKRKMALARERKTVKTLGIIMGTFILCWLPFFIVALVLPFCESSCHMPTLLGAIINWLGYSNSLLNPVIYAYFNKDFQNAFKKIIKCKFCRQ
SERT, sequence (P31645 whole entry): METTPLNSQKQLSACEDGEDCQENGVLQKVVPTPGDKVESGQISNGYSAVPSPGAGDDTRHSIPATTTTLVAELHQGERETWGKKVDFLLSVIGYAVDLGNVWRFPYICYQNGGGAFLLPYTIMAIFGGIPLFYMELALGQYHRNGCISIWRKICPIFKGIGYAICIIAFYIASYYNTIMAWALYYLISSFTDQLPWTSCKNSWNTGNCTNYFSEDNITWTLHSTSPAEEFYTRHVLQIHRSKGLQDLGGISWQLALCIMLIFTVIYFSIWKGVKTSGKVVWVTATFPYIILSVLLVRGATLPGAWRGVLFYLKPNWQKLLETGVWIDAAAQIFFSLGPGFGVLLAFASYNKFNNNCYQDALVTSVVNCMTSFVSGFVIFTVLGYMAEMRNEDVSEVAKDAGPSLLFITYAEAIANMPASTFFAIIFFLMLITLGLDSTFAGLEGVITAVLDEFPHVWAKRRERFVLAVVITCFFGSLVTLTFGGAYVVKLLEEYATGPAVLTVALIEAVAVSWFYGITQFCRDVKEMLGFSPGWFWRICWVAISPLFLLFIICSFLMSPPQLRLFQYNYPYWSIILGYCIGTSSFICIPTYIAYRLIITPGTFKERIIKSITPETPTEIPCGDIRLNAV
D2, sequence (P14416 whole entry): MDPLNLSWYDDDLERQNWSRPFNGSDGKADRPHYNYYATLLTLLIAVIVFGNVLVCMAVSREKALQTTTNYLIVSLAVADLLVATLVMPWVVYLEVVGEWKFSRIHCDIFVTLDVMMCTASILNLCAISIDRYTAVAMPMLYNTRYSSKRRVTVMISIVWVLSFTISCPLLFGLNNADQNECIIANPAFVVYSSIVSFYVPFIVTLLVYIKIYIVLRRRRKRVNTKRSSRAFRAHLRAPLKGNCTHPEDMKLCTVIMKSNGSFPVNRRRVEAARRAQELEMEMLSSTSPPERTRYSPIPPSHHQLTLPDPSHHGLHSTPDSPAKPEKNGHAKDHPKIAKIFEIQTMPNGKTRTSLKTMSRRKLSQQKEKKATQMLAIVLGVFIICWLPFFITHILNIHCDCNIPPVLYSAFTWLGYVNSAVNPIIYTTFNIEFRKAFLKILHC
KOR, sequence (P41145 whole entry): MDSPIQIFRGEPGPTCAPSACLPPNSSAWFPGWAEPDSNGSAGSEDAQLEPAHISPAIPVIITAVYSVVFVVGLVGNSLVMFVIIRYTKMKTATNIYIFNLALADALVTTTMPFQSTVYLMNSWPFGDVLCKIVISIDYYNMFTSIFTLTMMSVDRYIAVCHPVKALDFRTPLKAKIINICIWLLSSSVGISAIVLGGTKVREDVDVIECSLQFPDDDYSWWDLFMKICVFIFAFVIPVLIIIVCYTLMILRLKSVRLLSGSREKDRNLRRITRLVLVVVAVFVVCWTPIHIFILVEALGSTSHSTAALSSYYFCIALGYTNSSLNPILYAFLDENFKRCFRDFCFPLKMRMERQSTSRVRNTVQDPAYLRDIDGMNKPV
α1D, sequence (P25100 whole entry): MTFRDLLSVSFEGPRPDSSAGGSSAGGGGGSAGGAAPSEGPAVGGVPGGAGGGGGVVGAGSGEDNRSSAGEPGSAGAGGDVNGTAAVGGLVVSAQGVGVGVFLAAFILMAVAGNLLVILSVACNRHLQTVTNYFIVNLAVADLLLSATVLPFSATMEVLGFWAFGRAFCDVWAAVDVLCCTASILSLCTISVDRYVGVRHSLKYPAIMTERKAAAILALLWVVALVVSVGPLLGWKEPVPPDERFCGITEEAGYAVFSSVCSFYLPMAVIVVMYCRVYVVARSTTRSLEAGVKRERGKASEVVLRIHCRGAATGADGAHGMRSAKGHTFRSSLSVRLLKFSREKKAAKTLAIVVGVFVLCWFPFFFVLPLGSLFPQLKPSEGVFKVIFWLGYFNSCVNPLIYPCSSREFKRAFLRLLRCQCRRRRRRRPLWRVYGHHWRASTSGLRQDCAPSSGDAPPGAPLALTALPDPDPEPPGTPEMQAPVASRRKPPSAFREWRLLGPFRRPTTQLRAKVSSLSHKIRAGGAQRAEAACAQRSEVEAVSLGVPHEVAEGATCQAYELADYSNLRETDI
α2A, sequence (P08913 whole entry): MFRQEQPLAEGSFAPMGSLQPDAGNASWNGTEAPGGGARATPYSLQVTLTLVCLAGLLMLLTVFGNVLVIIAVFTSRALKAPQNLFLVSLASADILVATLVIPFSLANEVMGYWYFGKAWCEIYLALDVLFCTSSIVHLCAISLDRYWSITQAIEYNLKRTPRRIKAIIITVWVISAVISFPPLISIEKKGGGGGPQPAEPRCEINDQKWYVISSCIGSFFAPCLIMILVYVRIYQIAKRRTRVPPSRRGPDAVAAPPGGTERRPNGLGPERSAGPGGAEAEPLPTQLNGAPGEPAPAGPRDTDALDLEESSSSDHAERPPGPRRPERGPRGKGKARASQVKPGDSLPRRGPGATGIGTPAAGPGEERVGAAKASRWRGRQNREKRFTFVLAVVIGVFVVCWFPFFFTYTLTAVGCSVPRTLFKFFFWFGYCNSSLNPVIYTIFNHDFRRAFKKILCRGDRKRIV
M3, sequence (P20309 whole entry): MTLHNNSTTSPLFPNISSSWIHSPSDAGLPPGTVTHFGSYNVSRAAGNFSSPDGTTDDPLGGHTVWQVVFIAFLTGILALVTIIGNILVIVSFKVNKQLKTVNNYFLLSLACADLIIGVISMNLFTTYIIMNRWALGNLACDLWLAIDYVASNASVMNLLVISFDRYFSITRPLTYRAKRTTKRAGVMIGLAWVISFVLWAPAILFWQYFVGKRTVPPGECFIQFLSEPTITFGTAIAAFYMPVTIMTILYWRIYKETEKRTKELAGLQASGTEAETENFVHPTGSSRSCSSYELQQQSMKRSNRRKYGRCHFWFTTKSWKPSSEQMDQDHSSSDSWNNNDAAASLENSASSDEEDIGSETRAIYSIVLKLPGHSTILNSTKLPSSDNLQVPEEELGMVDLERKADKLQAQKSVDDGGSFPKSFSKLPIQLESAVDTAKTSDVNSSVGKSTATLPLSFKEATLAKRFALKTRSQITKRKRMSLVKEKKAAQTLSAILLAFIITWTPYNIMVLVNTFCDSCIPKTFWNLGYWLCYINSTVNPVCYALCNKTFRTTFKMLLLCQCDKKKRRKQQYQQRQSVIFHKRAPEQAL

COc1cc2c3c(c1OC/C=C/c1ccccc1)-c1cc4c(cc1CC3N(C)CC2)OCO4 (stereo not drawn) [Compound 8e]
Kb (5-HT2A receptor [1]): > 10000 nM
Kb (α1A adrenergic receptor [2]): > 10000 nM

COc1cc2c3c(c1OC)-c1cc4c(cc1CC3N(C)CC2)OCO4 (stereo not drawn) [Compound 4, nantenine, reference compound]
Kb (α1A adrenergic receptor [2]): 36 ± 7 nM

COc1cc2c3c(c1OCc1ccc(Br)cc1)-c1cc4c(cc1CC3N(C)CC2)OCO4 (stereo not drawn) [Compound 8k]
inhibition in a primary assay, β1 (β1): less than 50%
inhibition in a primary assay, D4 (D4): less than 50%
inhibition in a primary assay, M4 (M4): less than 50%
inhibition in a primary assay, M2 (M2): less than 50%
Ki (α2A): 300 to 900 nM
inhibition in a primary assay, NET (NET): less than 50%
Ki (5-HT2C): 300 to 900 nM
inhibition in a primary assay, 5-HT5A (5-HT5A): less than 50%
inhibition in a primary assay, KOR (KOR): less than 50%
inhibition in a primary assay, M3 (M3): less than 50%
inhibition in a primary assay, H3 (H3): less than 50%
inhibition in a primary assay, α1B (α1B): less than 50%
inhibition in a primary assay, DOR (DOR): less than 50%
inhibition in a primary assay, BZP rat brain site (BZP rat brain site): less than 50%
Ki (DAT): 300 to 900 nM
inhibition in a primary assay, β2 (β2): less than 50%
inhibition in a primary assay, H4 (H4): less than 50%
inhibition in a primary assay, 5-HT1A (5-HT1A): less than 50%
inhibition in a primary assay, D2 (D2): less than 50%
Ki (5-HT2A receptor [3]): 185 nM
inhibition in a primary assay, β3 (β3): less than 50%
inhibition in a primary assay, SERT (SERT): less than 50%
inhibition in a primary assay, D5 (D5): less than 50%
Kb (5-HT2A receptor [1]): 9.2 ± 2.6 nM
Selectivity α1A/5-HT2A (5-HT2A receptor [1]): >1,086
Ki (sigma-2): 300 to 900 nM
Kb (α1A adrenergic receptor [2]): > 10000 nM
inhibition in a primary assay, MOR (MOR): less than 50%
inhibition in a primary assay, M1 (M1): less than 50%
inhibition in a primary assay, GABAA (GABAA): less than 50%
inhibition in a primary assay, H1 (H1): less than 50%
Ki (5-HT6): 300 to 900 nM
Ki (PBR): > 900 nM
inhibition in a primary assay, α1A (α1A): less than 50%
inhibition in a primary assay, α1D (α1D): less than 50%

COc1cc2c3c(c1OCC#N)-c1cc4c(cc1CC3N(C)CC2)OCO4 (stereo not drawn) [Compound 8g]
Kb (5-HT2A receptor [1]): > 10000 nM
Selectivity α1A/5-HT2A (5-HT2A receptor [1]): < 0.07
Kb (α1A adrenergic receptor [2]): 711 ± 64 nM

C=C(C)COc1c(OC)cc2c3c1-c1cc4c(cc1CC3N(C)CC2)OCO4 (stereo not drawn) [Compound 8b]
Kb (α1A adrenergic receptor [2]): > 10000 nM

COc1cc2c3c(c1OCc1ccc(C(F)(F)F)cc1)-c1cc4c(cc1CC3N(C)CC2)OCO4 (stereo not drawn) [Compound 8j]
Kb (5-HT2A receptor [1]): 2460 nM
Selectivity α1A/5-HT2A (5-HT2A receptor [1]): > 4.1
Kb (α1A adrenergic receptor [2]): > 10000 nM

C=CCOc1c(OC)cc2c3c1-c1cc4c(cc1CC3N(C)CC2)OCO4 (stereo not drawn) [Compound 5]
affinity for the α1A adrenergic receptor (α1A adrenergic receptor [4]): devoid of affinity
Kb (α1A adrenergic receptor [2]): > 10000 nM

C/C=C/COc1c(OC)cc2c3c1-c1cc4c(cc1CC3N(C)CC2)OCO4 (stereo not drawn) [Compound 8a]
Kb (α1A adrenergic receptor [2]): 1980 nM

COc1cc2c3c(c1OCc1ccc(Cl)cc1)-c1cc4c(cc1CC3N(C)CC2)OCO4 (stereo not drawn) [Compound 8i]
Kb (5-HT2A receptor [1]): 6050 nM
Selectivity α1A/5-HT2A (5-HT2A receptor [1]): > 1.7
Kb (α1A adrenergic receptor [2]): > 10000 nM

COc1cc2c3c(c1OCCOC(C)=O)-c1cc4c(cc1CC3N(C)CC2)OCO4 (stereo not drawn) [Compound 8h]
Kb (5-HT2A receptor [1]): 1910 nM
Kb (α1A adrenergic receptor [2]): 591 ± 81 nM

COc1cc2c3c(c1OCC=C(C)C)-c1cc4c(cc1CC3N(C)CC2)OCO4 (stereo not drawn) [Compound 8c]
Kb (α1A adrenergic receptor [2]): > 10000 nM
